Measurements reported in paper PMC12442639, “A Two‐Protein Chemoreceptor Complex Regulates Oxygen Thresholds in Bacterial Magneto‐Aerotaxis” (Advanced Science, 2025).

Target: T1, CetB2 (His6-CetB2) (Magnetospirillum gryphiswaldense, UniProt A0ACM8ULG3)
T1 construct: N-terminal His6 tag (pET28a), expressed in E. coli Rosetta(DE3) pLysSRARE, Ni-agarose purified; predicted FAD-site residues His54, Asn55, Arg58, Phe67, Trp71, Asn86, Val100, Arg117
Assay: LC-MS of purified protein; UV/vis spectroscopy; cyclic voltammetry
Assay type: binding
Details: non-covalently bound, co-purified FAD; UV/vis in 50 mM Na-phosphate pH 8, 300 mM NaCl, 5% glycerol

T1 sequence (A0ACM8ULG3 entry or part of it): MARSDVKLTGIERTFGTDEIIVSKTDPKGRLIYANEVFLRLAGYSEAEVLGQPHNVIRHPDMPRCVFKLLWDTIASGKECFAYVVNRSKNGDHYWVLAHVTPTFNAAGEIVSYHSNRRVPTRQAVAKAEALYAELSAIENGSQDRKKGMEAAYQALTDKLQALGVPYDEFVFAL

## Cc1cc2nc3c(=O)[nH]c(=O)nc-3n(C[C@H](O)[C@H](O)[C@H](O)COP(=O)(O)OP(=O)(O)OC[C@H]3O[C@@H](n4cnc5c(N)ncnc54)[C@H](O)[C@@H]3O)c2cc1C [FAD, flavin adenine dinucleotide]
  LC-MS of purified protein; UV/vis spectroscopy; cyclic voltammetry: indicates that FAD was non‐covalently bound to the protein and released during chromatographic separation
